Values after ≈ are worked out from the molar mass of the structure shown. Like-named read-outs stand apart in the source and are kept apart here. *1 amine or outer side, *2 acyl side, *3 side chain or, on linkers, in order; H or OH if unused. Where a SMILES comes first, the peptide text is derived from it. Bridges are numbered along the chain shown (N, C = ends). [ ]: non-standard residue; d: D form. The star is where a group is joined. Palmitoyl(16-(5-tetrazolyl)) = O=C(CCCCCCCCCCCCCCCc1nnn[nH]1)*; C18 diacid = O=C(O)CCCCCCCCCCCCCCCCC(=O)*; γGlu = O=C(O)[C@H](CCC(=O)[*:2])N[*:1]; Hyp = O=C(O)[C@@H]1C[C@@H](O)CN1; NTA = O=C(O)CN(CC(=O)O)CC(=O)*; Nle = CCCC[C@H](N)C(=O)O; Dap = NC[C@H](N)C(=O)O; AEEA = NCCOCCOCC(=O)O
Assays:
[1] = Solubility data of compounds in water over the pH range; format: physicochemical
[2] = biological target: T1, human MC4 receptor (Homo sapiens, UniProt P32245); experiment: Assay (V) Melanocortin Receptor 4 (MC4) binding assay; settings: 125NDP-α-MSH binding, BHK cell membranes; read-out: Assay (V) MC4 [Ki]
T1 construct: expressed in transfected cells
Method: Assay (V)—Melanocortin Receptor 4 (MC4) Binding Assay
In vitro ^125NDP-α-MSH binding to recombinant BHK cells expressing human MC4 receptor (filtration assay).
The assay is performed in 5 ml minisorb vials (Sarstedt No. 55.526) or in 96-well filterplates (Millipore MADVN 6550), and using BHK cells expressing the human MC4 receptor using BHK cells stably expressing the human MC4 receptor. The membranes were prepared from frozen or fresh cells that were homogenized in 20 mM HEPES pH 7.1, 5 mM MgCl2 and 1 mg/ml bacitracin and centrifuged at 15000 rpm at 4° C., 10 min in a Sorvall RC 5B plus, SS-34 rotor. The supernatant was discarded, and the pellets were re-suspended in buffer, homogenized and centrifuged two more times. The final pellets were resuspended in the buffer mentioned above, and the protein concentration was measured and adjusted with buffer to 14 to 17 mg/ml and the membrane preparation were kept at −80° C. until assay. The assay was run directly on a dilution of this cell membrane suspension, without any further preparation. The BHK cell membranes are kept at −80° C. until assay, and the assay is run directly on a dilution of this cell membrane suspension, without further preparation. The suspension is diluted to give maximally 10% specific binding, i.e. to approx. 50-100 fold dilution. The assay is performed in a total volume of 200 μl: 50 μl of cell suspension, 50 μl of ^125NDP-α-MSH (≈79 pM in final concentration), 50 μl of test compound and 50 μl binding buffer (pH 7) mixed and incubated for 2 h at 25° C. [binding buffer: 25 mM HEPES, pH 7.0, 1 mM CaCl2, 1 mM MgSO4, 1 mM EGTA, 0.02% Bacitracin, 0.005% Tween™ 20 and 0.1% HSA or, alternatively, 0.1% ovalbumin (Sigma; catalogue No. A-5503)]. Test compounds are dissolved in DMSO and diluted in binding buffer. Radiolabelled ligand and membranes are diluted in binding buffer. The incubation is stopped by dilution with 2×100 μl ice-cold 0.9% NaCl. The radioactivity retained on the filters is counted using a Cobra II auto gamma counter.
(§1) The data are analysed by non-linear regression analysis of binding curves, using the Windows™ program GraphPad™ Prism (GraphPad Software, USA).

[3] = biological target: T2, MC1 receptor (Homo sapiens, UniProt Q01726); experiment: Assay (IV) Melanocortin Receptor 1 (MC1) binding assay; settings: 125NDP-α-MSH binding, BHK cell membranes; read-out: Assay (IV) MC1 Ki
T2 construct: expressed in transfected cells
Method: Assay (IV)—Melanocortin Receptor 1 (MC1) Binding Assay
The MC1 receptor binding assay is performed on BHK cell membranes stably expressing the MC1 receptor. The assay is performed in a total volume of 250 NI: 25 μl of ^125NDP-α-MSH (22 pM in final concentration), 25 μl of test compound/control and 200 μl of cell membrane (25 μg/ml). Test compounds are dissolved in DMSO. Radioactively labeled ligand, membranes and test compounds are diluted in buffer: 25 mM HEPES, pH 7.4, 0.1 mM CaCl2, 1 mM MgSO4, 1 mM EDTA, 0.1% HSA and 0.005% Tween™ 20. Alternatively, HSA may be substituted with ovalbumin. The samples are incubated at 30° C. for 90 min. in Costar round-bottom microtiter plates. Incubation is terminated by filtration on a Packard harvester filtermate. Rapid filtration through Packard Unifilter-96 GF/B filters pre-treated with polyethylenimine (PerkinElmer 6005277). The filters are washed with ice-cold 0.9% NaCl 8-10 times. The plates is air dried at app. 55° C. for 30 min, and 50 μl Microscint 0 (Packard, cat. No. 6013616) is added to each well. The plates are counted in a Topcounter (1 min/well).
as §1

T2 sequence (Q01726 whole entry): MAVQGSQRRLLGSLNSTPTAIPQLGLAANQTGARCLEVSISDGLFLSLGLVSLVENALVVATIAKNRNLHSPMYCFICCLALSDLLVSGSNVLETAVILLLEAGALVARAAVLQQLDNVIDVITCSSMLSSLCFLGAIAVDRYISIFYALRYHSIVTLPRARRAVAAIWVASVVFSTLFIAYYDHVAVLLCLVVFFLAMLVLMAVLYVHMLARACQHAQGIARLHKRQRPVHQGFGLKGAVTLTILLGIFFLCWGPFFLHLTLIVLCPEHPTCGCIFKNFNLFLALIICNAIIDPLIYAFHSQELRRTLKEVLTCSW
T1 sequence (P32245 whole entry): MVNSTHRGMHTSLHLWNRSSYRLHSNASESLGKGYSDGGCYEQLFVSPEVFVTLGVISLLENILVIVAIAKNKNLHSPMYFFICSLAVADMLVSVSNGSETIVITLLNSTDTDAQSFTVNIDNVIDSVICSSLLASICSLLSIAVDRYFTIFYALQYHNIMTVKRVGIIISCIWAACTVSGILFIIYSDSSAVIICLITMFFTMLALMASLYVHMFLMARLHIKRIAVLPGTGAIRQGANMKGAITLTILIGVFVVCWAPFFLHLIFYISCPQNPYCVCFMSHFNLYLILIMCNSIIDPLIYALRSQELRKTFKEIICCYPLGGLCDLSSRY

Structure (SMILES) | solubility at 3 days ([1]; pH 3.7) | solubility at 3 days ([1]; pH 5.2) | solubility at 3 days ([1]; pH 5.96) | solubility at 3 days ([1]; pH 6.56) | solubility at 3 days ([1]; pH 6.73) | solubility at 3 days ([1]; pH 6.95) | solubility at 3 days ([1]; pH 7.07) | solubility at 3 days ([1]; pH 7.51) | Ki [2] | Ki [3] | solubility at 3 days ([1]; pH 3.32, pH 3.32, read-out: Conc (solubility in water)) | solubility at 3 days ([1]; pH 3.76, pH 3.76, read-out: Conc (solubility in water)) | solubility at 3 days ([1]; pH 4.31, pH 4.31, read-out: Conc (solubility in water)) | solubility at 3 days ([1]; pH 4.56, pH 4.56, read-out: Conc (solubility in water)) | solubility at 3 days ([1]; pH 4.94, pH 4.94, read-out: Conc (solubility in water)) | solubility at 3 days ([1]; pH 5.55, pH 5.55, read-out: Conc (solubility in water)) | solubility at 3 days ([1]; pH 6.04, pH 6.04, read-out: Conc (solubility in water)) | solubility at 3 days ([1]; pH 6.34, pH 6.34, read-out: Conc (solubility in water)) | solubility at 3 days ([1]; pH 6.89, pH 6.89, read-out: Conc (solubility in water)) | solubility at 3 days ([1]; pH 7.62, pH 7.62, read-out: Conc (solubility in water))
CCCC[C@H](NC(=O)[C@H](CNC(=O)CN(CC(=O)O)CC(=O)O)NC(=O)[C@H](Cc1c[nH]cn1)NC(=O)[C@H](CCC(N)=O)NC(=O)[C@H](CO)NC(=O)CNC(=O)COCCOCCNC(=O)COCCOCCNC(=O)CC[C@H](NC(=O)CCCCCCCCCCCCCCCCC(=O)O)C(=O)O)C(=O)N[C@H]1CCC(=O)NCCCC[C@@H](C(N)=O)NC(=O)[C@H](Cc2c[nH]c3ccccc23)NC(=O)[C@H](CCCNC(=N)N)NC(=O)[C@@H](Cc2ccccc2)NC(=O)[C@@H]2C[C@@H](O)CN2C1=O [Example 18, (2-{2-[2-(2-{2-[(S)-4-Carboxy-4-(17-carboxyheptadecanoylamino)butanoylamino]ethoxy}ethoxy)acetylamino]ethoxy}ethoxy)acetyl-Gly-Ser-Gln-His-Dap(BCMA)-Nle-c[Glu-Hyp-D-Phe-Arg-Trp-Lys]-NH2] ({C18 diacid-γGlu-AEEA-AEEA}-GSQH[Dap](NTA)[Nle]E[Hyp][dF]RWK-NH2; lactam 7-12) | 391 µM (≈ 921 µg/mL) | 25 µM (≈ 58.9 µg/mL) | 78 µM (≈ 184 µg/mL) | 249 µM (≈ 587 µg/mL) | 342 µM (≈ 806 µg/mL) | 382 µM (≈ 900 µg/mL) | 485 µM (≈ 1140 µg/mL) | 498 µM (≈ 1170 µg/mL) | 5.35 nM | > 10 µM |  |  |  |  |  |  |  |  |  | 
CCCC[C@H](NC(=O)[C@H](CNC(=O)CN(CC(=O)O)CC(=O)O)NC(=O)[C@H](Cc1c[nH]cn1)NC(=O)[C@H](CCC(N)=O)NC(=O)[C@H](CO)NC(=O)[C@H](CCC(=O)O)NC(=O)COCCOCCNC(=O)CCCCCCCCCCCCCCCc1nnn[nH]1)C(=O)N[C@H]1CCC(=O)NCCCC[C@@H](C(N)=O)NC(=O)[C@H](Cc2c[nH]c3ccccc23)NC(=O)[C@H](CCCNC(=N)N)NC(=O)[C@@H](Cc2ccccc2)NC(=O)[C@@H]2C[C@@H](O)CN2C1=O [Example 17, (2-{2-[16-(Tetrazol-5-yl)hexadecanoylamino]ethoxy}ethoxy)acetyl-Glu-Ser-Gln-His-Dap(BCMA)-Nle-c[Glu-Hyp-D-Phe-Arg-Trp-Lys]-NH2] ({Palmitoyl(16-(5-tetrazolyl))-AEEA}-ESQH[Dap](NTA)[Nle]E[Hyp][dF]RWK-NH2; lactam 7-12) |  |  |  |  |  |  |  |  | 5.4 nM | > 10 µM | 34 µM (≈ 73.6 µg/mL) | 25 µM (≈ 54.1 µg/mL) | 20 µM (≈ 43.3 µg/mL) | 20 µM (≈ 43.3 µg/mL) | 23 µM (≈ 49.8 µg/mL) | 39 µM (≈ 84.4 µg/mL) | 127 µM (≈ 275 µg/mL) | 226 µM (≈ 489 µg/mL) | 303 µM (≈ 656 µg/mL) | 351 µM (≈ 760 µg/mL)
